Literature values in PMC10482691, “LTP induction by structural rather than enzymatic functions of CaMKII” (Nature, 2023).

Tested on: CA3–CA1 Schaffer collateral pathway LTP
Parameters: method as in PMID 2549638
Conditions: previous studies; cited from earlier work

CC1CNCCN1S(=O)(=O)c1cccc2cnccc12 (stereo not shown) [H7]
effect on LTP: LTP inhibition
